target: T1, Dipeptidyl Peptidase-IV (DPP-IV) (Homo sapiens, UniProt P27487); test: Measurement of DPP-IV Activity-Inhibiting Ability (fluorescent substrate Ac-Gly-Pro-AFC); assay type: biochemical; conditions: 25° C., 50 mmol HEPES (pH 7.4), DP-IV 7.1 nM, enzyme reaction for 1 hour
T1 construct: made in house
In short: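 Fluorescence (ex 400 nm, em 505 nm) from cleavage of Ac-Gly-Pro-AFC ([…]) tracked activity at various inhibitor concentrations. Reactions used 7.1 nM recombinant enzyme, expressed in baculovirus and purified on nickel, in 50 mmol HEPES pH 7.4 at 25 °C.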

T1 sequence (P27487 whole entry): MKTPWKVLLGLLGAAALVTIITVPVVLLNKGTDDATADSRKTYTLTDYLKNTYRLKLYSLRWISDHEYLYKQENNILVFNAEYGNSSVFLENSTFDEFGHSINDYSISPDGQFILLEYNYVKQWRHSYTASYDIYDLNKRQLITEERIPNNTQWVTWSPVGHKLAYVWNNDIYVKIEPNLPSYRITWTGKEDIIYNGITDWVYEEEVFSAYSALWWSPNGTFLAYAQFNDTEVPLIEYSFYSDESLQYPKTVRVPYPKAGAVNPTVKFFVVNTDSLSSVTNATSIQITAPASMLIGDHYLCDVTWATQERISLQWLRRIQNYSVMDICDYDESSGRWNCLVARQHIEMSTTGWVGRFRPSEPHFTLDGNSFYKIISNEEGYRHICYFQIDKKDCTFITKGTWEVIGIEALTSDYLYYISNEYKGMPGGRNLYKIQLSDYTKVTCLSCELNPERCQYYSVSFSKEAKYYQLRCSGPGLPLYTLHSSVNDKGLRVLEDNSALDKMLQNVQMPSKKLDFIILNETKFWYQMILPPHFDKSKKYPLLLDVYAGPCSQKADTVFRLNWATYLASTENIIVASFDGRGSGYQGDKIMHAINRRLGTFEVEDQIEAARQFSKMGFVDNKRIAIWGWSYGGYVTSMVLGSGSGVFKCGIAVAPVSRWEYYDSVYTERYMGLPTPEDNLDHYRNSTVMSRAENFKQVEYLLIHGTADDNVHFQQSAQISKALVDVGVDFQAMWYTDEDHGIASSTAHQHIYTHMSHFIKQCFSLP

Q: Which IC50 does the source give for `COCCc1nc2c(c(C(F)(F)F)n1)CCN(C(=O)C[C@H](N)CN1CC(F)(F)CCC1=O)C2` [Ex. 53, 1-{(2S)-2-amino-4-[2-(2-methoxyethyl)-4-(trifluoromethyl)-5,8-dihydropyrido[3,4-d]pyrimidin-7(6H)-yl]-4-oxobutyl}-5,5-difluoropiperidin-2-one] here?
A: 26 nM

Q: For `C[C@@H]1CCC(=O)N(C[C@@H](N)CC(=O)N2CCc3c(nc(CC4CC4)nc3C(F)(F)F)C2)C1` [Ex. 54, (5R)-1-{(2S)-2-amino-4-[2-(cyclopropylmethyl)-4-(trifluoromethyl)-5,8-dihydropyrido[3,4-d]pyrimidin-7(6H)-yl]-4-oxobutyl}-5-methylpiperidin-2-one], which IC50 is on record?
A: 30 nM

Q: With `N[C@@H](CC(=O)N1CCc2c(nc(CC3CC3)nc2C(F)(F)F)C1)CN1CC(F)(F)CCC1=O` [Ex. 55, 1-{(2S)-2-amino-4-[2-(cyclopropylmethyl)-4-(trifluoromethyl)-5,8-dihydropyrido[3,4-d]pyrimidin-7(6H)-yl]-4-oxobutyl}-5,5-difluoropiperidin-2-one] as the compound, how does the IC50 read?
A: 20 nM

Q: With `C[C@@H]1CCC(=O)N(C[C@@H](N)CC(=O)N2CCc3c(nc(-c4ccncc4)nc3C(F)(F)F)C2)C1` [Ex. 56, (5R)-1-{(2S)-2-amino-4-oxo-4-[2-pyridin-4-yl-4-(trifluoromethyl)-5,8-dihydropyrido[3,4-d]pyrimidin-7(6H)-yl]butyl}-5-methylpiperidin-2-one] as the compound, how does the IC50 read?
A: 11 nM

Q: `N[C@@H](CC(=O)N1CCc2c(nc(-c3ccncc3)nc2C(F)(F)F)C1)CN1CC(F)(F)CCC1=O` [Ex. 57, 1-{(2S)-2-amino-4-oxo-4-[2-pyridin-4-yl-4-(trifluoromethyl)-5,8-dihydropyrido[3,4-d]pyrimidin-7(6H)-yl]butyl}-5,5-difluoropiperidin-2-one] was tested. Which IC50 did it give?
A: 48 nM

Q: With `C[C@@H]1CCC(=O)N(C[C@@H](N)CC(=O)N2CCc3c(nc(Cc4ccc(F)cc4)nc3C(F)(F)F)C2)C1` [Ex. 58, (5R)-1-{(2S)-2-amino-4-[2-(4-fluorobenzyl)-4-(trifluoromethyl)-5,8-dihydropyrido[3,4-d]pyrimidin-7(6H)-yl]-4-oxobutyl}-5-methylpiperidin-2-one] as the compound, how does the IC50 read?
A: 14 nM

Q: For `N[C@@H](CC(=O)N1CCc2c(nc(Cc3ccc(F)cc3)nc2C(F)(F)F)C1)CN1CC(F)(F)CCC1=O` [Ex. 59, 1-{(2S)-2-amino-4-[2-(4-fluorobenzyl)-4-(trifluoromethyl)-5,8-dihydropyrido[3,4-d]pyrimidin-7(6H)-yl]-4-oxobutyl}-5,5-difluoropiperidin-2-one], which IC50 is on record?
A: 36 nM

Q: Which IC50 does the source give for `C[C@@H]1CCC(=O)N(C[C@@H](N)CC(=O)N2CCc3c(nc(-c4ccsc4)nc3C(F)(F)F)C2)C1` [Ex. 60, (5R)-1-{(2S)-2-amino-4-oxo-4-[2-(3-thienyl)-4-(trifluoromethyl)-5,8-dihydropyrido[3,4-d]pyrimidin-7(6H)-yl]butyl}-5-methylpiperidin-2-one] here?
A: 61 nM

Q: For `N[C@@H](CC(=O)N1CCc2c(nc(-c3ccsc3)nc2C(F)(F)F)C1)CN1CC(F)(F)CCC1=O` [Ex. 61, 1-{(2S)-2-amino-4-oxo-4-[2-(3-thienyl)-4-(trifluoromethyl)-5,8-dihydropyrido[3,4-d]pyrimidin-7(6H)-yl]butyl}-5,5-difluoropiperidin-2-one], which IC50 is on record?
A: 55 nM

Q: How did the IC50 turn out when `C[C@@H]1CCC(=O)N(C[C@@H](N)CC(=O)N2CCc3c(nc(-c4cccs4)nc3C(F)(F)F)C2)C1` [Ex. 62, (5R)-1-{(2S)-2-amino-4-oxo-4-[2-(2-thienyl)-4-(trifluoromethyl)-5,8-dihydropyrido[3,4-d]pyrimidin-7(6H)-yl]butyl}-5-methylpiperidin-2-one] was run?
A: 32 nM

Q: Which IC50 does the source give for `N[C@@H](CC(=O)N1CCc2c(nc(-c3cccs3)nc2C(F)(F)F)C1)CN1CC(F)(F)CCC1=O` [Ex. 63, 1-{(2S)-2-amino-4-oxo-4-[2-(2-thienyl)-4-(trifluoromethyl)-5,8-dihydropyrido[3,4-d]pyrimidin-7(6H)-yl]butyl}-5,5-difluoropiperidin-2-one] here?
A: 35 nM

Q: `C[C@@H]1CCC(=O)N(C[C@@H](N)CC(=O)N2CCc3c(nc(-c4ccco4)nc3C(F)(F)F)C2)C1` [Ex. 64, (5R)-1-{(2S)-2-amino-4-[2-(2-furyl)-4-(trifluoromethyl)-5,8-dihydropyrido[3,4-d]pyrimidin-7(6H)-yl]-4-oxobutyl}-5-methylpiperidin-2-one] was tested. Which IC50 did it give?
A: 5 nM

Q: Which IC50 does the source give for `N[C@@H](CC(=O)N1CCc2c(nc(-c3ccco3)nc2C(F)(F)F)C1)CN1CC(F)(F)CCC1=O` [Ex. 65, 1-{(2S)-2-amino-4-[2-(2-furyl)-4-(trifluoromethyl)-5,8-dihydropyrido[3,4-d]pyrimidin-7(6H)-yl]-4-oxobutyl}-5,5-difluoropiperidin-2-one] here?
A: 12 nM

Q: How did the IC50 turn out when `C[C@@H]1CCC(=O)N(C[C@@H](N)CC(=O)N2CCc3c(nc(-c4ccoc4)nc3C(F)(F)F)C2)C1` [Ex. 66, (5R)-1-{(2S)-2-amino-4-[2-(3-furyl)-4-(trifluoromethyl)-5,8-dihydropyrido[3,4-d]pyrimidin-7(6H)-yl]-4-oxobutyl}-5-methylpiperidin-2-one] was run?
A: 16 nM

Q: How did the IC50 turn out when `N[C@@H](CC(=O)N1CCc2c(nc(-c3ccoc3)nc2C(F)(F)F)C1)CN1CC(F)(F)CCC1=O` [Ex. 67, 1-{(2S)-2-amino-4-[2-(3-furyl)-4-(trifluoromethyl)-5,8-dihydropyrido[3,4-d]pyrimidin-7(6H)-yl]-4-oxobutyl}-5,5-difluoropiperidin-2-one] was run?
A: 10 nM

Q: For `C[C@@H]1CCC(=O)N(C[C@@H](N)CC(=O)N2CCc3c(nc(-c4ccc[nH]4)nc3C(F)(F)F)C2)C1` [Ex. 68, (5R)-1-{(2S)-2-amino-4-oxo-4-[2-(1H-pyrrol-2-yl)-4-(trifluoromethyl)-5,8-dihydropyrido[3,4-d]pyrimidin-7(6H)-yl]butyl}-5-methylpiperidin-2-one], which IC50 is on record?
A: 72 nM

Q: Which IC50 does the source give for `N[C@@H](CC(=O)N1CCc2c(nc(-c3ccc[nH]3)nc2C(F)(F)F)C1)CN1CC(F)(F)CCC1=O` [Ex. 69, 1-{(2S)-2-amino-4-oxo-4-[2-(1H-pyrrol-2-yl)-4-(trifluoromethyl)-5,8-dihydropyrido[3,4-d]pyrimidin-7(6H)-yl]butyl}-5,5-difluoropiperidin-2-one] here?
A: 55 nM

Q: For `C[C@@H]1CCC(=O)N(C[C@@H](N)CC(=O)N2CCc3c(nc(-c4cccnc4)nc3C(F)(F)F)C2)C1` [Ex. 70, (5R)-1-{(2S)-2-amino-4-oxo-4-[2-pyridin-3-yl-4-(trifluoromethyl)-5,8-dihydropyrido[3,4-d]pyrimidin-7(6H)-yl]butyl}-5-methylpiperidin-2-one], which IC50 is on record?
A: 8 nM

Q: How did the IC50 turn out when `N[C@@H](CC(=O)N1CCc2c(nc(-c3cccnc3)nc2C(F)(F)F)C1)CN1CC(F)(F)CCC1=O` [Ex. 71, 1-{(2S)-2-amino-4-oxo-4-[2-pyridin-3-yl-4-(trifluoromethyl)-5,8-dihydropyrido[3,4-d]pyrimidin-7(6H)-yl]butyl}-5,5-difluoropiperidin-2-one] was run?
A: 5 nM

Q: Which IC50 does the source give for `CCc1nc2c(c(C(F)(F)F)n1)CCN(C(=O)C[C@H](N)CN1CC(F)(F)CCC1=O)C2` [Ex. 72, 1-{(2S)-2-amino-4-[2-ethyl-4-(trifluoromethyl)-5,8-dihydropyrido[3,4-d]pyrimidin-7(6H)-yl]-4-oxobutyl}-5,5-difluoropiperidin-2-one] here?
A: 23 nM

Q: How did the IC50 turn out when `CCc1nc2c(c(C(F)(F)F)n1)CCN(C(=O)C[C@H](N)CN1C[C@H](C)OCC1=O)C2` [Ex. 73, (6S)-4-{(2S)-2-amino-4-[2-ethyl-4-(trifluoromethyl)-5,8-dihydropyrido[3,4-d]pyrimidin-7(6H)-yl]-4-oxobutyl}-6-methylmorpholine-3-one] was run?
A: 27 nM
